Test results published in publication PMC4666608, “Metabolic Profiling of Chicken Embryos Exposed to Perfluorooctanoic Acid (PFOA) and Agonists to Peroxisome Proliferator-Activated Receptors” (PLoS ONE, 2015).
Marks after values point to notes of the source that are not given here.

Test system: chicken embryos
Assay: Metabolic profiling of blood plasma (GC-MS, LC-MS, OPLS-DA)
Type: in vivo, Gallus gallus domesticus
Method: Controls were injected with 20 μL vehicle only (DMSO).
Plasma was collected and stored at -70°C.
Metabolites in allantoic fluid and blood plasma were analyzed using gas chromatography-mass spectrometry (GC-MS) and liquid chromatography-mass spectrometry (LC-MS) as described in S1 Methods. Prior to GC-MS and LC-MS analysis, allantoic fluid (100 μL) and blood plasma (50 μL) were extracted. To each sample, 900 μL (allantoic fluid) or 450 μL (blood plasma) of extraction buffer (90/10 v/v methanol:water) including all internal standards were added. Standards for GC-MS were proline, succinic acid, glutamic acid, salicylic acid, alpha-ketoglutarate, putrescine, myristic acid, hexadecanoic acid, cholesterol, and sucrose. Standards for LC-MS were Val-Tyr-Val, Leu-enkephalin, sulfadimethoxine and reserpine. Samples were homogenized by shaking in a bead mill at a frequency of 30 Hz for 3 minutes and proteins were precipitated at +4°C on ice. The samples were centrifuged at +4°C, 14000 rpm, for 10 min. Then, 200 μL supernatant was transferred to a GC microvial and 200 μL was transferred to an LC microvial, and solvents were evaporated. Samples from the four replicate experiments were analyzed using in chronological order and within each replicate experiment the run order of the individual samples was randomized.
Multivariate statistical analyses of metabolite profiles were performed using the software package SIMCA-P version 13.0 (Umetrics, Umeå, Sweden). Data was centered and scaled to variance 1 (UV scaling) prior to modelling. To reduce unintended systematic variation caused by sample processing and instrument drift, GC-MS and LC-MS metabolite amounts (expressed as the area under the chromatographic peak) were normalized by Orthogonal Partial Least Squares analysis (O2PLS) prior to multivariate data analysis. O2PLS finds common (predictive) and unique (orthogonal) variation in two data matrices. If applied to find the common variation between the data matrix containing the measured metabolite concentrations and a matrix containing only the internal standards, the only common (predictive) variation expected is due to the unintended systematic variation. By deleting the contribution of the predictive latent variables, that variation can be removed from the data. Models obtained after this normalization contain in general less latent variables, and this simplification helps when deciding on the number of latent variables to be used. Following normalization, GC-MS and LC-MS data were analyzed together. Initially, a global Principal Component Analysis (PCA) was performed to get an overview of groups and trends and to identify outliers. Projections to latent structures by means of Orthogonal Partial Least Squares Discriminant Analysis (OPLS-DA) was used to model the relationship between the X-matrix (metabolite concentrations) and the Y matrix (class, i.e. exposure group or sex), and to find x-variables that were related to class belonging. OPLS-DA is a supervised prediction and regression method that rotates the projection plane to find the maximum covariance between the data and the class assignment. All groups were first analyzed together in a 5-class OPLS-DA and then each exposure group was analyzed against the control group in a 2-class OPLS-DA. Sex differences were analyzed both using the whole data set and in each group separately using 2-class OPLS-DA, with females and males as the two classes. Only variables with 80% or more nonzero values were included in the statistical models. […] The validity of each model was also checked using CV-ANOVA (ANOVA of the cross-validated residuals). A significance level of p < 0.05 was used. For each model, R ^2 X, R ^2 Y and Q ^2 values were calculated, where R ^2 X is a measure of the fraction of x variation modeled in the extracted latent variables, R ^2 Y is a measure of the fraction of y variation modeled and Q ^2 is an estimate of the predictive ability of the model and is calculated by cross-validation. […]

CC(C)(Sc1ccc(CCN(CCCCC2CCCCC2)C(=O)NC2CCCCC2)cc1)C(=O)O [GW7647, reference compound]
Mean concentration relative to control, feature Win006_C03 (GC): 1.3*** | Mean concentration relative to control, feature Win011_C02 (Isoleucine) (GC): 1.2** | Mean concentration relative to control, feature Win027_C13 (GC): 0.9 | Mean concentration relative to control, feature Win031_C03 (Citric acid) (GC): 0.8** | Mean concentration relative to control, feature Win034_C08 (Tyrosine) (GC): 1.2*** | Mean concentration relative to control, feature Win034_C09 (Tyrosine) (GC): 1.3*** | Mean concentration relative to control, feature Win039_C07 (GC): 1.8*** | Mean concentration relative to control, feature Win043_C02 (Cystathionine) (GC): 1.6*** | Mean concentration relative to control, feature Win061_C01 (GC): 1.4* | Mean concentration relative to control, feature Win066_C03 (GC): 1.3** | Mean concentration relative to control, feature Win088_C02 (GC): 1.2** | Mean concentration relative to control, feature 118.0284@2.480333 (C4H6O4) (LC): 0.9 | Mean concentration relative to control, feature 122.0486@0.675613 (LC): 0.7** | Mean concentration relative to control, feature 126.0428@1.2278157 (Thymine) (LC): 1.2*** | Mean concentration relative to control, feature 146.0362@0.7772238 (LC): 1.3** | Mean concentration relative to control, feature 159.0686@1.1608156 (LC): 1.6** | Mean concentration relative to control, feature 164.0449@0.7694838 (LC): 1.2** | Mean concentration relative to control, feature 202.1024@5.0303197 (C8H14N2O4) (LC): 1.4** | Mean concentration relative to control, feature 203.1162@0.5130696 (LC): 0.8*** | Mean concentration relative to control, feature 213.2458@7.4887733 (LC): 1 | Mean concentration relative to control, feature 215.047@1.6260729 (C5H14NO6P) (LC): 0.8*** | Mean concentration relative to control, feature 226.0721@1.9460537 (LC): 1.1** | Mean concentration relative to control, feature 231.0174@1.6241412 (LC): 0.7** | Mean concentration relative to control, feature 233.1265@2.535991 (LC): 1.4** | Mean concentration relative to control, feature 250.1317@2.1334834 (LC): 1.7** | Mean concentration relative to control, feature 260.0508@0.69984084 (LC): 0.8 | Mean concentration relative to control, feature 276.0173@1.6283482 (LC): 0.7** | Mean concentration relative to control, feature 278.0939@1.3354088 (LC): 0.8*** | Mean concentration relative to control, feature 293.0903@1.5739433 (LC): 1.2*** | Mean concentration relative to control, feature 307.2147@7.5065937 (C18H29NO3) (LC): 0.9 | Mean concentration relative to control, feature 310.178@7.5343466 (LC): 1 | Mean concentration relative to control, feature 339.3861@9.528681 (LC): 1.1 | Mean concentration relative to control, feature 342.2883@7.526812 (LC): 1.1 | Mean concentration relative to control, feature 348.0675@1.5761927 (LC): 1.1** | Mean concentration relative to control, feature 355.9454@0.68034226 (LC): 0.9** | Mean concentration relative to control, feature 362.1467@0.8461036 (LC): 1.2*** | Mean concentration relative to control, feature 366.1431@1.4228548 (LC): 1.1 | Mean concentration relative to control, feature 373.296@9.044806 (LC): 0.8*** | Mean concentration relative to control, feature 375.3108@8.995564 (LC): 0.8** | Mean concentration relative to control, feature 389.2686@9.046645 (LC): 0.9** | Mean concentration relative to control, feature 407.0999@1.585909 (LC): 1 | Mean concentration relative to control, feature 412.135@2.4779084 (C17H24N4O6S) (LC): 0.9 | Mean concentration relative to control, feature 444.3607@10.33052 (LC): 0.9 | Mean concentration relative to control, feature 471.9819@0.685074 (LC): 0.8* | Mean concentration relative to control, feature 489.1508@8.562614 (LC): 0.7** | Mean concentration relative to control, feature 509.1184@2.4798179 (LC): 1 | Mean concentration relative to control, feature 525.2855@8.361063 (LC): 1.4** | Mean concentration relative to control, feature 545.2492@8.463657 (LC): 1.2* | Mean concentration relative to control, feature 558.4095@9.459733 (LC): 1.3 | Mean concentration relative to control, feature 565.1902@0.7699907 (LC): 1.2*** | Mean concentration relative to control, feature 577.2747@9.25652 (LC): 1.2** | Mean concentration relative to control, feature 581.1643@0.77029324 (LC): 1.3*** | Mean concentration relative to control, feature 634.2403@1.9467853 (LC): 1.5* | Mean concentration relative to control, feature 644.1614@0.7647065 (LC): 1.2** | Mean concentration relative to control, feature 659.5483@11.4915495 (LC): 0.7*** | Mean concentration relative to control, feature 698.2598@1.3599721 (LC): 1.1 | Mean concentration relative to control, feature 700.5514@10.765638 (LC): 1.4* | Mean concentration relative to control, feature 755.5465@10.73882 (LC): 0.9 | Mean concentration relative to control, feature 827.5078@8.831237 (LC): 1.5* | Mean concentration relative to control, feature 875.4661@10.5661745 (LC): 1.3*** | Mean concentration relative to control, feature 1262.4865@1.947075 (LC): 1.1** | Mean concentration relative to control, feature 1316.4163@1.9465046 (LC): 1.1** | Mean concentration relative to control, feature 1591.051@5.0189176 (LC): 0.8** | Mean concentration relative to control, feature 1591.388@5.0202384 (LC): 0.8*** | Mean concentration relative to control, feature 1591.7203@5.018071 (LC): 0.8**
